Laboratory results as given in publication PMC12775434, “Ultra-large virtual screening unveils potent agonists of the neuromodulatory orphan receptor GPR139” (Nature Communications, 2025).
Values joined by “and” are separate entries in the source; they are usually repeats but may differ in a detail not shown here. Equal entries are not always repeated.

Tests used:
Format in all cases: cell-based
[1] = biological target: T1, GPR139 (GoA activation) (Homo sapiens, UniProt Q6DWJ6); experiment: BRET G protein activation (dissociation) assay, GoA, HEK293A; conditions: for G protein activation, GoA: individual replicates
T1 construct: expressed in transfected cells; host or cells: HEK293A (transient, Lipofectamine 2000)
T1 sequence (Q6DWJ6 1-353): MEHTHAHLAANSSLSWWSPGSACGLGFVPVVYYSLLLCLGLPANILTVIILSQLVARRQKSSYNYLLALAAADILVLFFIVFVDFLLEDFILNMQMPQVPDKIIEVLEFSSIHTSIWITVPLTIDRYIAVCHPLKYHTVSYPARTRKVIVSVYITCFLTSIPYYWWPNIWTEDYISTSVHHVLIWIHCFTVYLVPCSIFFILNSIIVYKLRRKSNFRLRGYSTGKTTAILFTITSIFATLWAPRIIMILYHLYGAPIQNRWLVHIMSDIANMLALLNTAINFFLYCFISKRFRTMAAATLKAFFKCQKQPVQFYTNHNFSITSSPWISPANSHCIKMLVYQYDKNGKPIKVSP
Description: (§1) Primary screening and pharmacological characterization of compounds were performed using a CHO-K1 cell line that stably expresses human GPR139 (GPR139-CHOk1). The GPR139-CHOk1 cell line was kindly provided by H. Lundbeck A/S, Denmark[24]. GPR139-CHOk1 cells were grown in Ham’s F-12 Kaighn’s Modification Medium (ThermoFisher #21127030) supplemented with 10% dialyzed fetal bovine serum (US origin, ThermoFisher #26400044), 100 units/mL Penicillin-Streptomycin (ThermoFisher #15140122), and 1 mg/mL Geneticin (ThermoFisher #11811031). […] M1R-CHOk1 cells were purchased from The Missouri S&T cDNA Resource Center (#CEM100TN00). M1R-CHOk1 cells were grown in Ham’s F12 Medium (ThermoFisher #21765029) supplemented with 10% fetal bovine serum (Brazilian origin, ThermoFisher #10270106), 100 units/mL Penicillin-Streptomycin, and 0.25 mg/mL Geneticin. HEK293A cells transiently transfected with GPR139 were used for additional pharmacological assessment of signaling pathways activated by GPR139. HEK239A cells were generously provided by Dr. Asuka Inoue, Tohoku University, Japan. HEK293A cells were grown in Dulbecco’s Modified Eagle Medium (ThermoFisher #31966047) supplemented with 10% dialyzed fetal bovine serum and 100 units/mL Penicillin-Streptomycin. Cell lines were maintained at 37 °C in humidified incubator equilibrated with 5% CO2.
(§2) The G protein dissociation assay developed by the lab of Kirill A. Martemyanov was used to measure the coupling of multiple G proteins by GPR139[57]. The assay was performed as described previously with minor modifications. HEK293A cells were reverse transfected 20–24 h prior to assay. 50,000 cells were plated in each well of white opaque tissue culture treated 96-well plates (PerkinElmer #6005680) previously coated with poly-D-lysine. Transfection solutions were prepared as described, and 10 µL transfection solution was mixed with 100 µL cells in each well. The cells in each well were transfected with 18.9 ng GPR139, 6.3 ng Venus 1-155 Gγ2, 6.3 ng Venus 159-239 Gβ1, 6.3 ng masGRK3ct-NanoLuc and 12.6 ng Gαi2, 12.6 ng Gαi3, 12.6 ng GαoA, 12.6 ng Gαq or 25.2 ng Gα12 using 375 nL Lipofectamine 2000 Transfection Reagent. Transfections with Gαq and Gα12 contained 6.3 ng DNA of the active subunit S1 of pertussis toxin (PTX-S1). Each transfection was normalized to 150 ng total DNA with pcDNA3.1. The BRET biosensors were a kind gift from the Martemyanov lab. On the day of the experiment the cells were washed with HEPES buffer. Test compounds were diluted in HEPES buffer from DMSO stocks (final DMSO concentration of maximally 0.3%). NanoLuc Luciferase substrate NanoGlo—furimazine (Promega #N1120) was diluted 1000-fold (final) in HEPES buffer. NanoGlo and test compounds were added, and measurements were performed after 10 s for Gi3, 15 s for Gi2 and GoA, 20 s for Gq, and 90 s for G12—the timepoint where maximal signal occurred with each G protein, ensuring proper determination of the potency for the G protein coupling. Simultaneous dual emission was measured at 535 nm and 475 nm on LUMIstar Omega Microplate Reader (BMG Labtech) at room temperature. The BRET ratio of 535 nm/475 nm (Venus/NanoLuc), reflecting the dissociation of the G protein heterotrimer, was used to determine the G protein activation. The basal BRET ratio obtained with buffer condition was subtracted from the absolute BRET ratio at a given test compound concentration, and the responses were normalized to the one obtained with 10 µM JNJ-63533054 for the activation of Gi2.
(§3) Pharmacological data and statistical analyses were performed in GraphPad Prism v9–10 (Graphpad Software Inc., San Diego, CA), which are also specifically described in the figure and table legends. […]

[2] = biological target: T2, GPR139 (Gq activation) (Homo sapiens, UniProt Q6DWJ6); experiment: BRET G protein activation (dissociation) assay, Gq, HEK293A; conditions: for G protein activation, Gq: individual replicates
T2 construct: expressed in transfected cells; host or cells: HEK293A (transient, Lipofectamine 2000)
T2 sequence (Q6DWJ6 1-353): T1 sequence (Q6DWJ6 1-353)
Description: as §1, §2, §3

[3] = biological target: T3, GPR139 (Gi3 activation) (Homo sapiens, UniProt Q6DWJ6); experiment: BRET G protein activation (dissociation) assay, Gi3, HEK293A; conditions: for G protein activation, Gi3: individual replicates
T3 construct: expressed in transfected cells; host or cells: HEK293A (transient, Lipofectamine 2000)
T3 sequence (Q6DWJ6 1-353): T1 sequence (Q6DWJ6 1-353)
Description: as §1, §2, §3

[4] = HEK293-A, normalized to JNJ-63533054 (JNJ(S))

Cc1cscc1-c1nc(CC(=O)N[C@H](C)c2ccccc2)no1 [1.1(R)]
Emax [1, 4]: 75 ± 3%
EC50 ([1]; Supplementary Table 6): 794 nM
G protein activation, GoA ([1]; log [compound] M -4.5): 74 % of JNJ-63533054 at Gi2 and 67 % of JNJ-63533054 at Gi2 and 78 % of JNJ-63533054 at Gi2
G protein activation, GoA ([1]; log [compound] M -5.0): 69 % of JNJ-63533054 at Gi2 and 63 % of JNJ-63533054 at Gi2 and 75 % of JNJ-63533054 at Gi2
G protein activation, GoA ([1]; log [compound] M -5.5): 62 % of JNJ-63533054 at Gi2 and 48 % of JNJ-63533054 at Gi2 and 61 % of JNJ-63533054 at Gi2
G protein activation, GoA ([1]; log [compound] M -6.0): 47 % of JNJ-63533054 at Gi2 and 34 % of JNJ-63533054 at Gi2 and 45 % of JNJ-63533054 at Gi2
G protein activation, GoA ([1]; log [compound] M -6.5): 19 % of JNJ-63533054 at Gi2 and 16 % of JNJ-63533054 at Gi2 and 26 % of JNJ-63533054 at Gi2
G protein activation, GoA ([1]; log [compound] M -7.0): 7.39 % of JNJ-63533054 at Gi2 and 4 % of JNJ-63533054 at Gi2 and 10 % of JNJ-63533054 at Gi2
G protein activation, GoA ([1]; log [compound] M -7.5): 0.895 % of JNJ-63533054 at Gi2 and 2 % of JNJ-63533054 at Gi2 and 3.63 % of JNJ-63533054 at Gi2
G protein activation, GoA ([1]; log [compound] M -8.0): -4.44 % of JNJ-63533054 at Gi2 and -2.19 % of JNJ-63533054 at Gi2 and 2.68 % of JNJ-63533054 at Gi2
Emax [2, 4]: 21 ± 3%
EC50 ([2]; Supplementary Table 6): 2510 nM
G protein activation, Gq ([2]; log [compound] M -4.5): 17 % of JNJ-63533054 at Gi2 (2×) and 25 % of JNJ-63533054 at Gi2
G protein activation, Gq ([2]; log [compound] M -5.0): 16 % of JNJ-63533054 at Gi2 and 21 % of JNJ-63533054 at Gi2 and 15 % of JNJ-63533054 at Gi2
G protein activation, Gq ([2]; log [compound] M -5.5): 10 % of JNJ-63533054 at Gi2 and 12 % of JNJ-63533054 at Gi2 (2×)
G protein activation, Gq ([2]; log [compound] M -6.0): 4.28 % of JNJ-63533054 at Gi2 and 5.63 % of JNJ-63533054 at Gi2 and 5 % of JNJ-63533054 at Gi2
G protein activation, Gq ([2]; log [compound] M -6.5): 0.0563 % of JNJ-63533054 at Gi2 and -0.806 % of JNJ-63533054 at Gi2 and 0.934 % of JNJ-63533054 at Gi2
G protein activation, Gq ([2]; log [compound] M -7.0): -1.52 % of JNJ-63533054 at Gi2 and -1.69 % of JNJ-63533054 at Gi2 and -0.279 % of JNJ-63533054 at Gi2
G protein activation, Gq ([2]; log [compound] M -7.5): -0.908 % of JNJ-63533054 at Gi2 and -3 % of JNJ-63533054 at Gi2 and -0.0719 % of JNJ-63533054 at Gi2
G protein activation, Gq ([2]; log [compound] M -8.0): -5.54 % of JNJ-63533054 at Gi2 and -3 % of JNJ-63533054 at Gi2 and 1.13 % of JNJ-63533054 at Gi2
Emax [3, 4]: 37 ± 1%
EC50 ([3]; Supplementary Table 6, read-out: pEC50 Gi3 (converted)): 794 nM
G protein activation, Gi3 ([3]; log [compound] M -4.5): 39 % of JNJ-63533054 at Gi2 and 35 % of JNJ-63533054 at Gi2 and 34 % of JNJ-63533054 at Gi2
G protein activation, Gi3 ([3]; log [compound] M -5.0): 33 % of JNJ-63533054 at Gi2 and 34 % of JNJ-63533054 at Gi2 (2×)
G protein activation, Gi3 ([3]; log [compound] M -5.5): 30 % of JNJ-63533054 at Gi2 (2×) and 24 % of JNJ-63533054 at Gi2
G protein activation, Gi3 ([3]; log [compound] M -6.0): 21 % of JNJ-63533054 at Gi2 and 22 % of JNJ-63533054 at Gi2 and 20 % of JNJ-63533054 at Gi2
G protein activation, Gi3 ([3]; log [compound] M -6.5): 11 % of JNJ-63533054 at Gi2 (2×) and 12 % of JNJ-63533054 at Gi2
G protein activation, Gi3 ([3]; log [compound] M -7.0): 1 % of JNJ-63533054 at Gi2 and 4.71 % of JNJ-63533054 at Gi2 and 3.32 % of JNJ-63533054 at Gi2
G protein activation, Gi3 ([3]; log [compound] M -7.5): -0.169 % of JNJ-63533054 at Gi2 and 1.37 % of JNJ-63533054 at Gi2 and 5.42 % of JNJ-63533054 at Gi2
G protein activation, Gi3 ([3]; log [compound] M -8.0): -2.27 % of JNJ-63533054 at Gi2 and 2 % of JNJ-63533054 at Gi2 and 10 % of JNJ-63533054 at Gi2
